As usually defined, the EC50 is the concentration giving half of the maximal effect. One may read the IC50 as the concentration that gives 50% inhibition. As a reminder, the Cmax is the maximum level reached in the sampled fluid or tissue. The term AUC(0-t) denotes exposure summed from dosing to a finite time, without extrapolation to infinity. Lower therefore signals less exposure. Usually bioavailability stands for dose-corrected exposure relative to a reference, in per cent. The low end stands for poor availability, the high end for good availability.

For data set [1], the target named is T1, recombinant human 5-HT1A receptor (Homo sapiens, UniProt P08908).
T1 construct: expressed in transfected cells
T1 sequence (P08908 1-422): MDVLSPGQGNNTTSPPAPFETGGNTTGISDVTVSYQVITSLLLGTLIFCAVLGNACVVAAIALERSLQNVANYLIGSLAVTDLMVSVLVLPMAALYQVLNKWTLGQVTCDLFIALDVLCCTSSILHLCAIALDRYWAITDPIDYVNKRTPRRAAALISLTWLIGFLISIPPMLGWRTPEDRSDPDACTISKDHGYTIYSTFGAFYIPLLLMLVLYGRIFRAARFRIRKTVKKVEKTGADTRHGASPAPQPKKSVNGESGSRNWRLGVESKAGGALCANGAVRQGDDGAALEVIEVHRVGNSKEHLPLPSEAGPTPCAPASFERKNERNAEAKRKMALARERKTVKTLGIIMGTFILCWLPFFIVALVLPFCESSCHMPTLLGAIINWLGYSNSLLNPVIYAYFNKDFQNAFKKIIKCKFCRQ
The data set can be described thus: 5-HT1A Receptor Agonist Activity Assay (LANCE cAMP, inhibition of cAMP production). The class given is cell-based. The following applies: CHO-K1 cells expressing the recombinant human 5-HT1A receptor, read-out: 5-HT1A agonistic activity (EC50). The procedure: The agonistic effect of the compounds on the 5-HT1A receptor was evaluated by testing their inhibitory effect on cAMP production in CHO-K1 cells. 8-OH-DPAT was used as a positive control. The specific procedures were as follows: a) The compounds (test compounds and positive control) were prepared to a stock concentration of 10 mM using DMSO, and Forskolin was prepared to a stock concentration of 10 mM. The initial test concentration of 8-OH-DPAT was 1 µM, diluted 3X. The initial test concentration of the test compounds was 0.1 µM, diluted 3X, and each concentration was repeated twice. 100 nL of the compounds and 10 nL of Forskolin were transferred to the test plate using an Echo, with a final DMSO concentration <1%. b) The stable 5-HT1A cell line was taken out from the incubator to observe the cell status. When the cell density reached 80%-90%, the culture medium was discarded and the cells were washed with 5 mL of DPBS. After discarding DPBS, 2 mL of trypsin was added, and the cells were incubated at 37 °C for 2-5 min. After adding 10 mL of complete culture medium, the cells were collected, which was centrifuged at 1000 rpm for 4 min, and the supernatant was discarded. […]
In general terms: In TR-FRET formats the signal depends on donor and acceptor labels being close together.

The target in data set [2] is T2, human SERT (Homo sapiens, UniProt P31645).
T2 construct: expressed in transfected cells; host or cells: HEK-293 (HEK-hSERT cells)
T2 sequence (P31645 whole entry): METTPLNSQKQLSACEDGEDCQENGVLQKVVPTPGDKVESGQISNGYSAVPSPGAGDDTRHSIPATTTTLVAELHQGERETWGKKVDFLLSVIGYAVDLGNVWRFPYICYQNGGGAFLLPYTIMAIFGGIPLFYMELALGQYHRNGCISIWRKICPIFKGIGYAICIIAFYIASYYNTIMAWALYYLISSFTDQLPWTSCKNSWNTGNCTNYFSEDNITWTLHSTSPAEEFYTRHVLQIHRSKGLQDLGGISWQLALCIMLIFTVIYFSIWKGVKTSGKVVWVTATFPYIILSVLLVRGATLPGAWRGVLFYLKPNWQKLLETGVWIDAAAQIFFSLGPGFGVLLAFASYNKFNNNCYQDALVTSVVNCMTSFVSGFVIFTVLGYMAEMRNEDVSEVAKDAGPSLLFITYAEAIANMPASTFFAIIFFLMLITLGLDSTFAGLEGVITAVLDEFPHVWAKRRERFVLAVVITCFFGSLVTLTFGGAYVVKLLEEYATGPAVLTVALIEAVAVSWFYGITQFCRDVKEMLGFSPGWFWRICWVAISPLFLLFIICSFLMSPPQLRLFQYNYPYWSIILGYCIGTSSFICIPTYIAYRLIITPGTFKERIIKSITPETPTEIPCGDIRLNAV
The data set can be described thus: 5-HT Transporter Inhibitory Activity Assay (Neurotransmitter transporter uptake assay kit). The following applies: HEK-293 cells expressing human SERT. The class given is cell-based. The procedure: The inhibitory effect of the compounds on the 5-HT transporter in HEK-293 cells expressing human SERT was tested using the Neurotransmitter transporter uptake assay kit (Molecular Devices product). The test was performed according to the kit instructions, using citalopram as a positive control. The specific procedure was as follows: a) HEK-hSERT cells were seeded at 20,000 cells/well in a 384-well plate and then incubated overnight at 37°C in an incubator. b) The following day, the compounds (test compounds and positive control) were diluted using DMSO from 20 mM DMSO solution to the working concentration. Each test compound and citalopram were transferred to a 384-well plate using a detection buffer containing 0.1% BSA. The initial test concentration of citalopram was 1 µM, diluted 3X. The initial test concentration of the test compounds was 10 µM, diluted 4X, with each concentration repeated twice. c) The cell culture 384-well plate was taken out from the incubator, the culture medium was aspirated from the wells, and 25 µL of the test compound solution was added per well. The cells were incubated at 37°C for 30 min. After incubation, 25 µL of a dye solution was added to each well and the cells were incubated at 37°C for 30 min. d) the fluorescence values were read on a Flexstation 3 and the data were analyzed using Graphpad Prism.

Data set [3] can be described thus: Mouse Pharmacokinetic Experiment (plasma and brain). The class given is in vivo, Male ICR mice. The following applies: for Cmax / AUC(0-t): oral (po) dose 1 mg/kg; for bioavailability: mouse, iv 0.3 mg/kg, po 1 mg/kg. The procedure: Animal: Male ICR mice. Animals were randomly assigned to the treatment group and fasted for 12 hours before administration.
Drug to be tested: The compounds were dissolved in solvent (0.5% CMC-Na). The intravenous (iv) dose was 0.3 mg/kg, with an administration volume of 5 ml/kg; the oral (po) dose was 1 mg/kg, with an administration volume of 10 mL/kg body weight.
Sample Collection and Bioanalysis: After administration, blood was collected from the orbital sinus of mice at 0.083, 0.25, 0.5, 1, 2, 4, 6, 8, and 24 hours (n=3 at each time point) and placed in EP tubes containing heparin sodium. Mice were euthanized immediately via vertebral dislocation after blood collection, and their brains were harvested at the corresponding time points. All samples were collected immediately, rapidly frozen, and stored at -70°C for later use.
Plasma samples were obtained by whole blood centrifugation. 10 µL of plasma was then mixed with 190 µL of internal standard solution (20 ng/mL metoprazor in acetonitrile containing 0.1% formic acid). After mixing, the mixture was centrifuged at 13000 rpm for 10 min. For each sample, 120 µL of the supernatant was collected, and 0.5-10 µL (depending on the sensitivity of the compound) was then taken for drug analysis using an appropriate liquid chromatography-tandem mass spectrometry (LC-MS/MS) method. Standards for each analyte were used for calibration and identification.
The brain tissue and extract were homogenized at a brain tissue:extract (50% acetonitrile-water) ratio = 1 (g): 8 (ml) using 5 3mm-magnetic beads in an OMNI Bead Ruptor 24 Elite homogenizer at 3.2 m/s for 2 min. The mixture was centrifuged at 4°C, 3000g for 3 min. 50 µL of supernatant was collected and added with 200 µL of internal standard solution (20 ng/mL dissolved in 80% acetonitrile-water). After mixing well, the mixture was centrifuged at 13000 rpm for 10 min. 120 µL of supernatant was collected for each sample. Then, 0.5-10 µL of the supernatant (depending on the sensitivity of the compound) was taken and analyzed using an appropriate LC-MS/MS method. Standards for each analyte were used for calibration and identification.
Data Analysis: Drug concentrations below the limit of quantitation (LLOQ) were recorded as zero. Pharmacokinetic data analysis was performed in PK Solver using non-compartmental, bolus intravenous injection, or extravascular administration analysis model. Data points below LLOQ were excluded from the analysis to improve the validity of t1/2 calculation.

Data set [4] is described as follows: Rat Pharmacokinetic Experiment. The class given is in vivo, male SD rats. The following applies: for AUC(0-t) / Cmax: rat plasma, oral (po) dose 3 mg/kg; for bioavailability: rat, iv 1 mg/kg, po 3 mg/kg. The procedure:
The compound of Example 2 was used in a pharmacokinetic experiment in rats (non-fasted male SD rats). The compound of the present invention was dissolved in a solvent (0.5% CMC-Na). The intravenous (iv) dose was 1 mg/kg, with an administration volume of 5 ml/kg; the oral (po) dose was 3 mg/kg, with an administration volume of 10 mL/kg body weight. Approximately 0.3 mL of blood samples were collected from the jugular vein of rats at the following time points: 0.083, 0.25, 0.5, 1, 2, 4, 6, 8, and 24 h (n=3 at each time point). The collected blood was stored under ice-cooling conditions. Plasma was rapidly separated by centrifugation, and a precipitant was added. The concentration of the test compound was quantified using LC-MS.

As for `O=C1CCc2ccc(CCN3CCN(c4cc(F)cc5c4OCC5)CC3)cc2N1` [Example 5, 7-(2-(4-(5-fluoro-2,3-dihydrobenzofuran-7-yl)piperazin-1-yl)ethyl)-3,4-dihydroquinolin-2(1H)-one], the EC50 in data set [1] amounted to 1.5 nM. Also, in data set [2], the IC50 was determined as 13 nM.

For the compound `O=C1CCc2ccc(CCN3CCN(c4cc(F)cc5ccsc45)CC3)cc2N1` [Example 15, 7-(2-(4-(5-fluorobenzo[b]thiophene-7-yl)piperazin-1-yl)ethyl)-3,4-dihydroquinolin-2(1H)-one], the EC50 in data set [1] was 0.5 nM. Further, the IC50 in data set [2] was 26 nM.

Take `[2H]C1([2H])C(=O)Nc2cc(CCN3CCN(c4cc(F)cc5occc45)CC3)ccc2C1([2H])[2H]` [Example 43, 7-(2-(4-(6-fluorobenzofuran-4-yl)piperazin-1-yl)ethyl)-3,4-dihydroquinolin-2(1H)-one-3,3,4,4-d4]: the midpoint of inhibition in data set [2], the IC50, lay at 7.4 nM.

The compound `O=c1ccc2ccc(CCN3CCN(c4cc(F)cc5c4CCO5)CC3)cc2[nH]1` [Example 7, 7-(2-(4-(6-fluoro-2,3-dihydrobenzofuran-4-yl)piperazin-1-yl)ethyl)quinolin-2(1H)-one] showed an IC50 in data set [2] of 9 nM.

In the case of `O=c1ccc2ccc(CCN3CCN(c4cc(F)cc5ccsc45)CC3)cc2[nH]1` [Example 16, 7-(2-(4-(5-fluorobenzo[b]thiophene-7-yl)piperazin-1-yl)ethyl)quinolin-2(1H)-one], the EC50 in data set [1] is 0.5 nM.

On to `O=C1CCc2ccc(CCN3CCN(c4cc(F)cc5c4CCO5)CC3)cc2N1` [Example 2, 7-(2-(4-(6-fluoro-2,3-dihydrobenzofuran-4-yl)piperazin-1-yl)ethyl)-3,4-dihydroquinolin-2(1H)-one], for which the Cmax in data set [3] (in vivo, mouse brain tissue) was found to be 413 ng/g; in data set [3] (in vivo, mouse plasma), 72.8 ng/mL; in data set [4] (in vivo), 815 ng/mL. Further, the area under the curve AUC(0-t) in data set [3] (in vivo, mouse plasma) was 794 ng·h/mL; in data set [4] (in vivo), 5320 ng·h/mL. For the same compound, the figures for the bioavailability in data set [3] (in vivo) and in data set [4] (in vivo) were 77% and 100%, respectively.

Compound `O=C1CCc2ccc(CCN3CCN(c4cc(F)cc5occc45)CC3)cc2N1` [Example 1, 7-(2-(4-(6-fluorobenzofuran-4-yl)piperazin-1-yl)ethyl)-3,4-dihydroquinolin-2(1H)-one] had a bioavailability in data set [3] (male, ICR, plasma) of 100%. Further, the peak concentration (Cmax) in data set [3] (male, ICR, mouse brain tissue) was 368 ng/g; in data set [3] (male, ICR, mouse plasma), 68.4 ng/mL. Also, the area under the curve AUC(0-t) in data set [3] (male, ICR, mouse plasma) worked out at 1170 ng·h/mL. Besides, the EC50 in data set [1] came out at 0.5 nM. Further, inhibition in data set [2] was half-maximal at 7.8 nM (IC50).

Take `O=C1CCc2ccc(CCN3CCN(c4c(F)ccc5ccsc45)CC3)cc2N1` [Example 14, 7-(2-(4-(6-fluorobenzo[b]thiophene-7-yl)piperazin-1-yl)ethyl)-3,4-dihydroquinolin-2(1H)-one]: the EC50 in data set [1] was 1 nM.

Regarding `[2H]C1([2H])CC(=O)Nc2cc(CCN3CCN(c4cc(F)cc5occc45)CC3)ccc21` [Example 41, 7-(2-(4-(6-fluorobenzofuran-4-yl)piperazin-1-yl)ethyl)-3,4-dihydroquinolin-2(1H)-one-4,4-d2], the EC50 in data set [1] was 0.7 nM.

`O=c1ccc2ccc(CCN3CCN(c4cc(F)cc5ccoc45)CC3)cc2[nH]1` [Example 3, 7-(2-(4-(5-fluorobenzofuran-7-yl)piperazin-1-yl)ethyl)quinolin-2(1H)-one]: in data set [1], the EC50 is 1.3 nM.

For `O=C1CCc2ccc(CCN3CCN(c4cc(F)cc5c4OCO5)CC3)cc2N1` [Example 39, 7-(2-(4-(6-fluorobenzo[d][1,3]dioxol-4-yl)piperazin-1-yl)ethyl)-3,4-dihydroquinolin-2(1H)-one], the IC50 in data set [2] amounted to 10.6 nM.

Turning to `O=C1CCc2ccc(CCN3CCN(c4ccc(F)c5sccc45)CC3)cc2N1` [Example 12, 7-(2-(4-(7-fluorobenzo[b]thiophene-4-yl)piperazin-1-yl)ethyl)-3,4-dihydroquinolin-2(1H)-one], the EC50 in data set [1] came to 0.8 nM.

For `[2H]C1([2H])Cc2ccc(CCN3CCN(c4cc(F)cc5c4CCO5)CC3)cc2NC1=O` [Example 22, 7-(2-(4-(6-fluoro-2,3-dihydrobenzofuran-4-yl)piperazin-1-yl)ethyl)-3,4-dihydroquinolin-2(1H)-one-3,3-d2], in data set [2], half-maximal inhibition (IC50) required 12.4 nM. This counts as double-digit nanomolar.

As for `O=C1CCc2ccc(CCN3CCN(c4cc(F)cc5sccc45)CC3)cc2N1` [Reference compound, 7-(2-(4-(6-fluorobenzo[b]thiophene-4-yl)piperazin-1-yl)ethyl)-3,4-dihydroquinolin-2(1H)-one, reference compound], the bioavailability in data set [3] (male, ICR, plasma) worked out at 50%; in data set [4] (male, SD, plasma), 43%. In addition, the Cmax in data set [3] (male, ICR, mouse brain tissue) came out at 254 ng/g; in data set [3] (male, ICR, mouse plasma) it was 27.5 ng/mL; in data set [4] (male, SD) it was 280 ng/mL. Moreover, the AUC(0-t) in data set [3] (male, ICR, mouse plasma) worked out at 468 ng·h/mL; in data set [4] (male, SD) it was 1560 ng·h/mL. For the same compound, in data set [1], the EC50 stood at 1 nM. Besides, the half-inhibitory concentration (IC50) in data set [2] was 15 nM.

The compound `O=C1CCc2ccc(CCN3CCN(c4cc(F)cc5ccoc45)CC3)cc2N1` [Example 6, 7-(2-(4-(5-fluorobenzofuran-7-yl)piperazin-1-yl)ethyl)-3,4-dihydroquinolin-2(1H)-one] showed a half-maximal inhibitory concentration (IC50) in data set [2] of 12 nM.

The values above are taken from patent publication EP4786467A1, “QUINOLINONE COMPOUND, PREPARATION METHOD THEREFOR AND USE THEREOF” (Vigonvita Life Sciences Co., Ltd., priority 2023, dated 2025).
